The values below come from patent publication US8653087B2, “Pyrido [5, 4-D] pyrimidines as cell proliferation inhibitors” (Boehringer Ingelheim International GmbH, priority 2008, dated 2014).

The experiment concerns the target B-Raf (V600E)-kinase (Homo sapiens (Human), UniProt P15056, V600E). Nature of the experiment: Kinase test B-RAF (V600E). It is filed as biochemical. The settings on record: B-RAF (V600E) kinase test, 250 μM ATP. Here is the method: Kinase Test B-RAF (V600E)
In a dilution series 10 μL of test substance solution are placed in a multiwell plate. The dilution series is selected so that generally a range of concentrations of 2 μM to 0.119 nM or 0.017 nM is covered. If necessary the initial concentration of 2 μM is changed to 50 μM, 10 μM or 0.4 μM or 0.2857 μM and further dilution is carried out accordingly. The final concentration of DMSO is 5%. 10 μL of the B-Raf (V600E)-kinase solution are pipetted in (containing 0.5 ng B-Raf (V600E)-kinase in 20 mM Tris-HCl pH 7.5, 0.1 mM EDTA, 0.1 mM EGTA, 0.286 mM sodium orthovanadate, 10% glycerol, 1 mg/mL bovine serum albumin, 1 mM dithiothreitol) and the mixture is incubated for 24 h at RT under with shaking. The kinase reaction is started by the addition of 20 μL ATP solution [final concentration: 250 μM ATP, 30 mM Tris-HCl pH 7.5, 0.02% Brij, 0.2 mM sodium orthovanadate, 10 mM magnesium acetate, 0.1 mM EGTA, phosphatase cocktail (Sigma, # P2850, dilution recommended by the manufacturer), 0.1 mM EGTA] and 10 μL MEK1 solution [containing 50 ng biotinylated MEK1 (prepared from purified MEK1 according to standard procedure, e.g. with EZ-Link Sulpho-NHS-LC-Biotin reagent, Pierce, #21335) and carried out for 60 min at RT with constant shaking. The reaction is stopped by the addition of 12 μL of a 100 mM EDTA solution and incubation is continued for a further 5 min. 55 μL of the reaction solution are transferred into a streptavidin-coated plate (e.g. Streptawell HighBond, Roche, #11989685001) and shaken gently for 1 h at RT, in order to bind biotinylated MEK1 to the plate. After elimination of the liquid the plate is washed five times with 200 μL of 1×PBS and 100 μL solution of primary antibody plus europium-labelled secondary antibody [Anti Phospho-MEK (Ser217/221), Cell Signaling, #9121 and Eu-N1 labeled goat-anti-rabbit antibody, Perkin Elmer, # AD0105], the primary antibody is diluted 1:2000 and the secondary antibody is diluted to 0.4-0.5 μg/mL in Delfia Assay Buffer (Perkin Elmer, #1244-111). After 1 h shaking at RT the solution is poured away and washed five times with 200 μL Delfia Wash Buffer (Perkin Elmer, #4010-0010/#1244-114). After the addition of 200 μL Enhancement Solution (Perkin Elmer, #4001-0010/#1244-105) the mixture is shaken for 10 min at RT and then measured in a Wallac Victor using the program “Delfia Time Resolved Fluorescence (Europium)”. IC50 values are obtained from these dosage-activity curves using a software program (GraphPadPrizm).

Broadly, the IC50 is the point on the concentration scale where inhibition reaches its midpoint. The low end stands for inhibition by little substance, the high end for a need for much substance.

B-Raf (V600E)-kinase, sequence (P15056 whole entry V600E): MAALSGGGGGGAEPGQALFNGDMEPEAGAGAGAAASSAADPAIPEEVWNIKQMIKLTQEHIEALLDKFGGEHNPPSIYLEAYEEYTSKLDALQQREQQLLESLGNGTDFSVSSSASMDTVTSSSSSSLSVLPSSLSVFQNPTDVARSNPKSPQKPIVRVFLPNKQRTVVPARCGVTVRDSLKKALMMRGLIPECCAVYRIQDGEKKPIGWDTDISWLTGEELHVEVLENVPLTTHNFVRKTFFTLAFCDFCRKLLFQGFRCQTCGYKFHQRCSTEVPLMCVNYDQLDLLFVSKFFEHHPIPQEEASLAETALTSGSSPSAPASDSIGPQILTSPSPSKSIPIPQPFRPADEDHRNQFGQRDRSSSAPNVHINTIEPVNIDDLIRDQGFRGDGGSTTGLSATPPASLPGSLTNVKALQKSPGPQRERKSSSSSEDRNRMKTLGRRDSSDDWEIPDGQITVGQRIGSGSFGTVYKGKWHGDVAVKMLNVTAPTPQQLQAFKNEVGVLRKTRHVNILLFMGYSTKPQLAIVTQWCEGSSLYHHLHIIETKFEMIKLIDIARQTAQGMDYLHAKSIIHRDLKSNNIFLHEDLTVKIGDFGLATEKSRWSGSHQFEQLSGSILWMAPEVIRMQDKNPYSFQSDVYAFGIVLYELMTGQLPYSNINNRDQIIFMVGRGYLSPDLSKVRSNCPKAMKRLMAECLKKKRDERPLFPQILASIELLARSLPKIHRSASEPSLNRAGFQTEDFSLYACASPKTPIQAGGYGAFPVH

Molecule `Cc1ccc(C(=O)Nc2cccc(C(F)(F)F)c2)cc1Nc1ncnc2c(N)nc(N3CCN(C)CC3)nc12` [I-55] showed an IC50 of under 1 nM. The figure for `Cc1ccc(C(=O)Nc2cccc(C(F)(F)F)c2)cc1Nc1ncnc2c(N)nc(N3CCN(C(C)C)CC3)nc12` [I-64] is under 1 nM; for `CN(C)c1ncc2ncnc(Nc3cc(C(=O)Nc4cc(C(C)(C)C)on4)ccc3F)c2n1` [III-93] it is 1 nM; for `COc1ccc(C(C)(C)C)cc1NC(=O)c1ccc(C)c(Nc2ncnc3cnc(N4CCN(CC5CCN(C)CC5)CC4)nc23)c1` [III-415] it is 3 nM. Next, `Cc1ccc(C(=O)Nc2cc(N3CCN(CCO)CC3)cc(C(F)(F)F)c2)cc1Nc1ncnc2cnc(N3CCOCC3)nc12` [III-526]: 4 nM; `COc1ccc(NC(=O)c2ccc(C)c(Nc3ncnc4cnc(N5CCN(CCCN6CCCC6)CC5)nc34)c2)cc1C(F)(F)F` [III-553]: 2 nM. Consider `COc1ccc(NC(=O)c2ccc(C)c(Nc3ncnc4cnc(N5CCOCC5)nc34)c2)cc1C(F)(F)F` [III-2], for which the IC50 is under 1 nM. Next, `Cc1ccc(C(=O)Nc2ccnc(C(C)(C)C)c2)cc1Nc1ncnc2cnc(N(C)C3CC(N4CCN(C)CC4)C3)nc12` (centres unmarked) [III-597]: 5 nM; `Cc1ccc(C(=O)Nc2cc(N3CCN(C)CC3)c(F)c(C(F)(F)F)c2)cc1Nc1ncnc2cnc(N3CCOCC3)nc12` [III-503]: 1 nM; `Cc1ccc(C(=O)Nc2cc(C(F)(F)F)ccn2)cc1Nc1ncnc2cnc(N3CCN(CC(C)C)CC3)nc12` [III-449]: 3 nM.

As to `Cc1ccc(C(=O)NCc2cccc(C(F)(F)F)c2)cc1Nc1ncnc2cnc(N3CCOCC3)nc12` [III-324], half-maximal inhibition (IC50) required 55 nM. As to `CC(C)(C)c1cc(NC(=O)c2ccc(Cl)c(Nc3ncnc4cnc(NCCN5CCOCC5)nc34)c2)no1` [III-78], the IC50 is 2 nM. Next, `COc1ccc(NC(=O)c2ccc(C)c(Nc3ncnc4cnc(N5C[C@H]6C[C@@H]5CN6C)nc34)c2)cc1C(F)(F)F` [III-431]: 3 nM; `COc1ccc(NC(=O)c2ccc(Cl)c(Nc3ncnc4cnc(N5CCCN(C)CC5)nc34)c2)cc1C(F)(F)F` [III-7]: 1 nM. In turn, `COc1ccc(NC(=O)c2ccc(F)c(Nc3ncnc4cnc(NCCN5CCOCC5)nc34)c2)cc1C(F)(F)F` [III-40] displayed an IC50 of 2 nM. Next, `COc1ccc(NC(=O)c2ccc(F)c(Nc3ncnc4cnc(N5CCN(CC6CC6)CC5)nc34)c2)cc1C(F)(F)F` [III-404]: 6 nM. The figure for `COc1ccc(NC(=O)c2ccc(F)c(Nc3ncnc4cnc(N(C)CCN(C)C)nc34)c2)cc1C(F)(F)F` [III-31] is under 1 nM. The figure for `COCCN1CCN(c2ncc3ncnc(Nc4cc(C(=O)Nc5cc(C(F)(F)F)ccc5C#N)ccc4C)c3n2)CC1` [III-531] is 13 nM; for `COc1ncc2ncnc(Nc3cc(NC(=O)c4cc(N5CCN(C)CC5)cc(C(F)(F)F)c4)ccc3C)c2n1` [IV-46] it is 3 nM. As to `Cc1ccc(NC(=O)c2cccc(C(C)(C)C#N)c2)cc1Nc1ncnc2cnc(N(C)C)nc12` [IV-12], the IC50 worked out at 1 nM.

`Cc1ccc(C(=O)Nc2ccccc2)cc1Nc1ncnc2cnc(N3CC[C@@H](F)C3)nc12` [III-209]: the IC50 is 162 nM. The figure for `Cc1ccc(C(=O)NCC2CCOC2)cc1Nc1ncnc2cnc(N3CCCN(C)CC3)nc12` (centres unmarked) [III-179] is over 7000 nM.

Molecule `CN1CCN(c2nc(N)c3ncnc(Nc4cc(C(=O)Nc5cccc(C(F)(F)F)c5)ccc4Cl)c3n2)CC1` [I-23] returned an IC50 of 14 nM. Next, `COc1ccc(C(C)(C)C)cc1NC(=O)c1ccc(C)c(Nc2ncnc3cnc(N4CCN(C)CC4)nc23)c1` [III-230]: 6 nM; `Cc1ccc(C(=O)Nc2cc(CN3CCCC3)cc(C(F)(F)F)c2)cc1Nc1ncnc2cnc(N3CCCC3)nc12` [III-109]: 2 nM; `COCCN(C)c1ncc2ncnc(Nc3cc(C(=O)Nc4cccc(C(F)(F)F)c4)ccc3C)c2n1` [III-467]: 2 nM.

`Cc1ccc(C(=O)Nc2cc(C(C)(C)C)nn2C)cc1Nc1ncnc2cnc(N3CCN(CC4CCN(C)CC4)CC3)nc12` [III-414] came in with an IC50 of 7 nM. Regarding `Cc1ccc(C(=O)Nc2cc(C(C)(C)C)n[nH]2)cc1Nc1ncnc2cnc(N3CCC(CN4CCCC4)CC3)nc12` [III-600], the IC50 was determined as 3 nM. As to `Cc1ccc(C(=O)Nc2cc(C(C)(C)C)on2)cc1N(C)c1ncnc2cnc(N3CC[C@H](F)C3)nc12` [III-583], the midpoint of inhibition, the IC50, lay at 32 nM.

`CCN(CC)c1ncc2ncnc(Nc3cc(C(=O)Nc4cc(OCCN(C)C)cc(C(F)(F)F)c4)ccc3C)c2n1` [III-157] showed an IC50 of 3 nM. Next, `Cc1ccc(NS(=O)(=O)CCC(C)C)cc1Nc1ncnc2cnc(N3CCN(C)CC3)nc12` [IV-54]: 10000 nM; `Cc1ccc(C(=O)Nc2cc(C(C)(C)C)on2)cc1Nc1ncnc2cnc(N3CCN(C4CC4)CC3)nc12` [III-493]: 5 nM. `Cc1ccc(C(=O)Nc2cc(OCCN3CCOCC3)cc(C(F)(F)F)c2)cc1Nc1ncnc2cnc(N3CCOCC3)nc12` [III-529] registered an IC50 of 3 nM. Next, `COc1ccc(NC(=O)c2ccc(C)c(Nc3ncnc4cnc(N5C[C@@H](C)O[C@@H](C)C5)nc34)c2)cc1C(F)(F)F` [III-550]: 4 nM. The molecule `COCCN1CCN(c2ncc3ncnc(Nc4cc(C(=O)Nc5cc(OC)cc(C(F)(F)F)c5)ccc4C)c3n2)CC1` [III-535] yielded an IC50 of 4 nM. `CC(C)(C)c1cc(NC(=O)c2ccc(F)c(Nc3ncnc4cnc(N5CCN(CC6CC6)CC5)nc34)c2)no1` [III-397] came in with an IC50 of 4 nM.

As for `COc1cc(NC(=O)c2ccc(C)c(Nc3ncnc4c(N)nc(N5CCN(C)CC5)nc34)c2)cc(C(F)(F)F)c1` [I-54], half-maximal inhibition (IC50) was put at 5 nM. Molecule `CN(C)CCNc1ncc2ncnc(Nc3cc(C(=O)Nc4cc(C(C)(C)C)on4)ccc3F)c2n1` [III-91] yielded an IC50 of 1 nM. The figure for `Cc1ccc(C(=O)Nc2ccnc(C(C)(C)C)c2)cc1Nc1ncnc2cnc(N3CCC(CCN(C)C)CC3)nc12` [III-606] is 3 nM; for `Cc1ccc(C(=O)Nc2cc(N(C)CCN(C)C)cc(C(F)(F)F)c2)cc1Nc1ncnc2c(N)nc(N3CCCOCC3)nc12` [I-70] it is 3 nM. In the case of `Cc1ccc(C(=O)Nc2cc(N(C)CCN(C)C)cc(C(F)(F)F)c2)cc1Nc1ncnc2cnc(N3CCCC3)nc12` [III-440], it took 272 nM to reach half-maximal inhibition (IC50). Next, `Cc1ccc(C(=O)Nc2cc(C(C)(C)C)n[nH]2)cc1Nc1ncnc2c(N)nc(N3CCN(C)CC3)nc12` [I-18]: 3 nM; `Cc1ccc(C(=O)NCc2cccc(C(F)(F)F)c2)cc1Nc1ncnc2cnc(N3CCCCC3)nc12` [III-214]: 56 nM. In turn, `Cc1ccc(C(=O)NCc2cccc(C(C)(C)C)c2)cc1Nc1ncnc2cnc(N3CCCN(C)CC3)nc12` [III-336] registered an IC50 of 140 nM. As for `Cc1ccc(C(=O)NC2CC2)cc1Nc1ncnc2cnc(N3CCCCC3)nc12` [III-254], the IC50 is 2000 nM. Next, `CCN1CCN(c2cc(NC(=O)c3ccc(C)c(Nc4ncnc5cnc(N6CCOCC6)nc45)c3)cc(C(F)(F)F)c2)CC1` [III-441]: 2 nM; `Cc1ccc(NC(=O)c2cccc(C(F)(F)F)c2)cc1Nc1ncnc2c(N)nc(NN3CCN(C)CC3)nc12` [II-3]: 50 nM; `COc1ccc(NC(=O)c2ccc(C)c(Nc3ncnc4cnc(N(C)C5CCOC5)nc34)c2)cc1C(F)(F)F` (centres unmarked) [III-548]: 3 nM.

`COc1ccc(NC(=O)c2ccc(C(F)(F)F)c(Nc3ncnc4cnc(N5CCOCC5)nc34)c2)cc1C(F)(F)F` [III-50]: the IC50 was 5 nM. The figure for `Cc1ccc(C(=O)Nc2ccc(Cl)c(C(F)(F)F)c2)cc1Nc1ncnc2cnc(N3CCN(C)CC3)nc12` [III-300] is 4 nM. With `Cc1ccc(C(=O)Nc2cc(CN3CCCC3)cc(C(F)(F)F)c2)cc1Nc1ncnc2cnc(NCC(C)C)nc12` [III-112], the IC50 was found to be 2 nM. Next, `Cc1ccc(C(=O)Nc2cc(C(C)(C)C)nn2C)cc1Nc1ncnc2c(N)nc(N3CCN(C)CC3)nc12` [I-72]: 12 nM. Next, `COc1c(NC(=O)c2ccc(C)c(Nc3ncnc4cnc(N5CC[C@H](F)C5)nc34)c2)cc(C(C)(C)C)cc1NS(C)(=O)=O` [III-295]: 17 nM.
